Patent publication US9102754B2, “Immunomodulatory compositions and methods for treating disease with modified host defense peptides” (priority 2007, dated 2015)
Like-named read-outs stand apart in the source and are kept apart here. Non-standard residues stand in square brackets, D forms with d.

Experiments:
[1] = molecular target: T1, PhoQ (Salmonella typhimurium, UniProt P0DM80); experiment: PhoPQ reporter assay (PhoN-PhoA fusion); assay type: cell-based, S. typhimurium strain CS 120; conditions: 5 μg/mL peptide, 5 mM magnesium
T1 construct: S. typhimurium strain CS 120, which expresses a PhoP-regulated fusion between Salmonella acid phosphatase (PhoN) and E. coli alkaline phosphatase (PhoA); endogenous in cells; host or cells: S. typhimurium strain CS 120
Description: S. typhimurium strain CS 120, which expresses a PhoP-regulated fusion between Salmonella acid phosphatase (PhoN) and E. coli alkaline phosphatase (PhoA), was utilized for the analysis of PhoPQ activation. The activity of this fusion protein was measured in media containing varying concentrations of the peptides and/or magnesium. For growth under PhoPQ activating conditions the growth media was supplemented with 50 μM MgCl2. Growth under PhoPQ-repressive conditions was performed in the presence of 5 mM MgCl2 as were all of the assays of peptide responses.
The ability of BMAP28 and RI-BMAP28 to initiate activation of a PhoPQ-dependent reporter was examined by incubation of bacterium in the presence of sub-lethal (5 μg/mL) concentrations of indicated peptide as well as 5 mM magnesium. Values reported represent the averages of three replicates. Activation and repression of PhoPQ by low (50 μM) and high (5 mM) magnesium respectively is also reported.
S. typhimurium strain CS 120, which expresses a PhoP-regulated fusion between Salmonella acid phosphatase (PhoN) and E. coli alkaline phosphatase (PhoA) was utilized for analysis of PhoPQ activation. The activity of this fusion protein was measured in salt-free LB media containing varying concentrations of the peptides and/or magnesium. For growth under PhoPQ activating conditions the growth media was supplemented with 50 μM MgCl2. […]

[2] = test system: LPS-induced expression of BIRC3, CCL20, IL-8 and IL-10 in bovine monocytes; experiment: HDP inhibition of LPS-induced gene expression (qRT-PCR); assay type: cell-based; conditions: 100 ng/ml LPS; for reduction of LPS-induced CCL20 expression / reduction of LPS-induced IL-8 expression / reduction of LPS-induced IL-10 expression: 0.5 μg/mL peptide; for suppression of the induction of LPS-induced genes: 5 μg/mL peptide, 4 hours
Source text: The induction of inflammation responses by lipopolysaccharide (LPS) has clinical significance as a mechanism of sepsis and also serves as a biomarker for the ability of HDPs to mediate anti-endotoxic function. Our investigation focuses on patterns of expression of genes (BIRC3, CCL20, IL-8 and IL-10) identified through microarray analysis to show the most significant levels of differential expression in response to LPS-stimulation in monocytes, Mookherjee et al., J. Leokocyte. Biol. 80:1-12, 2006; Mookherjee et al., J. Immunol. 176: 2455-2464, 2006. […] Biol. 80:1-12, 2006; Mookherjee et al., J. Immunol. 176: 2455-2464, 2006.
The data presented represents the average of experiments performed in triplicate for a single animal. While all three animals, each tested in triplicate, gave the same trend of responses, the magnitude of these responses is unique for each animal. This is typical of the animal-to-animal variation in the magnitude of LPS-induced responses that has been observed by our group.
Monocytes were purified from isolated PBMCs by MACS® purification using CD14 microbeads (Miltenyi Biotec Inc., Auburn, Calif.). Monocytes were then plated at 5×10^6 cells/well in 6-well plates using Aim V medium (Gibco™, Invitrogen Corp., San Diego, Calif.) supplemented with 10% heat-inactivated fetal bovine serum (Gibco™) and rested for 19 hours before stimulation.
The ability of BMAP-28 and RI-BMAP-28 to modulate patterns of gene expression induced by endotoxin stimulation was determined in cultured monocytes. Cultured monocytes were stimulated with purified LPS (100 ng/ml) in the presence or absence of different concentrations of antimicrobial peptides for 4 hours. […] Biol. 80:1-12, 2006; Mookherjee et al., J. Immunol. 176: 2455-2464, 2006, and in vivo, Clapp et al., Am. J. Respir. Cri. Care Med. 150: 611-617, 1994. Cells were pelleted and stored at −81° C.
RNA was extracted from the bovine PBMCs with the RNeasy Mini Kit (Qiagen Inc., Ontario, Canada) and the RNase-free DNase (Qiagen Inc.) as per the manufacturer's protocols.
Quantitive real-time PCR (qRT-PCR) was performed using Invitrogen's SuperScript™ III Platinum® two step qRT-PCR kit with SYBR® Green (Invitrogen Corp., San Diego, Calif.) on the Bio-Rad (Hercules, Calif.) iCycler. Briefly, 250 ng total RNA, 8 μL 2×RT reaction mix, 2 μL RT enzyme, and DNase/RNase free water were added to a final volume of 20 μL. The mixture was incubated at 25° C. for 5 minutes, followed by 1 hour incubation at 50° C. and a final incubation of 15 min at 70° C. to produce the cDNA. The PCR reaction was carried out as per the manufacturer's instructions (Invitrogen Corp.) using a mix of Platinum® SYBR® Green qRT-PCR Super-Mix UDG, the template cDNA, […] of the primer mix, and DNase/RNase free water up to 15 μL total volume per well. Cycling conditions were carried out as indicated by the Invitrogen's SuperScript™ III Platinum® two-step qRT-PCR kit with SYBR® Green.

[3] = test system: LPS-induced TNF-α secretion in bovine PBMCs; experiment: HDP inhibition of LPS-induced TNF secretion (capture ELISA); assay type: cell-based; conditions: 100 ng/ml LPS, various peptide concentrations
Source text: As patterns expression are not necessarily predictive of final biological responses we sought to confirm the immunomodulatory capabilities of RI-BMAP-28 through independent analysis. Specifically, the ability of the two isomers to influence secretion of the pro-inflammatory cytokine tumor necrosis factor alpha (TNF-α) following LPS stimulation was examined. Secretion of TNF-α is a well established biomarker of inflammation responses (52).
The secretion of TNF in culture supernatants was quantified with a capture ELISA. Inhibition of LPS-induced TNF secretion was evaluated by adding various concentrations of BMAP-28 (▴) or retro-inverso RI-BMAP-28 (▪) to duplicate PBMCs cultures. The data presented experiments performed in a single animal. While all three animals gave the same trend of responses, the magnitude of these responses is unique for each animal. […]
Untreated cells or cells treated with LPS for 24 h, in the presence or absence of the HDPs, were centrifuged at 1000×g for 5 min followed by 10,000×g for 10 min to obtain cell-free tissue culture supernatant samples. […] TNF-α secretion was monitored with a species-specific capture ELISA (37). […] The concentration of the cytokine was quantified by establishing a standard curve with serial dilutions of the recombinant human TNF-α (eBioscience, San Diego, Calif.) or bovine TNFα (Genetech Inc. San Francisco, Calif.).

[4] = test system: bovine erythrocytes; experiment: Cytotoxicity (hemolysis) assay; assay type: cell-based
Description: To determine the cytotoxicity of BMAP-28 and RI-BMAP-28 the peptides were incubated overnight at a range of concentrations in the presence of bovine erythrocytes. Consistent with what has been reported by others, BMAP-28 began to exert a cytotoxic effect at concentrations as low as 30 μg/mL. Complete hemolysis was observed by 200 μg/mL of BMAP-28. […] As toxicity currently represents a limiting factor to the systemic administration of HDPs this finding could be of particular significance.
Hemolysis was performed by incubating a 1% (v/v) suspension of bovine erythrocytes in phosphate buffered saline (pH 7.4) with a series of peptide concentrations for 12 hours at 37° C. Samples were then centrifuged and the supernatant absorbance read at 415 nm. Total hemolysis was obtained by resuspending in cells in water rather than PBS. Results are the average from four independent experiments.
Cytotoxicity assays were performed as based upon previously established protocols, Chen et al., Chem. Biol. Drug Des. 67: 162-173, 2006. Briefly, peptide samples were added to 1% bovine erythrocytes in phosphate-buffered saline and reactions were incubated at 37° C. for 18 h in microtiter plates. Appropriate dilutions of the peptides were made fresh prior to each MHC trial in HDP dilution buffer (0.2% BSA, 0.01% acetic acid) and added following addition of the erythrocytes in the appropriate microtiter plate well position. Hemolysis was determined by withdrawing aliquots from the assays, removing unlysed erythrocytes by centrifugation (800×g) and determining which peptide concentrations cause hemoglobin release. Hemoglobin release was determined spectrophotometrically at 570 nm. A sample of 1% erythrocytes with no added peptide served as a non-lysis control. As erythrocytes were incubated in an isotonic medium, no detectable release (<1% of that released upon complete hemolysis) of hemoglobin was observed from this control.

[5] = test system: mice; conditions: cited from earlier work
[6] = test system: Salmonella typhimurium ATCC 14028, Escherichia coli O157:H7, Serratia marcescens ATCC 274, Yersinia enterocolitica O:9 E40 (pYV40), Pseudomonas cepacia ATCC …; experiment: Minimal inhibitory concentration, modified broth microdilution; assay type: cell-based
Source text: The present study examined the direct antimicrobial activity of BMAP-28 and RI-BMAP-28 against a series of bacterium which are of medical interest. […] This conclusion is also consistent with the maintained sequence and structure of the RI-BMAP-28. Antimicrobial activity, which is dependent upon non-chiral interactions with bacterial membranes, is anticipated to have the lowest structural requirements for maintenance of activity.
The bacterial strains used for this investigation were Salmonella typhimurium ATCC 14028, Escherichia coli O157:H7, Serratia marcescens ATCC 274, Yersinia enterocolitica O:9 E40 (pYV40), Pseudomonas cepacia ATCC 53795, and Salmonella enterititidis 27655R PT4.
The MIC of the peptides were measured using a modified broth microdilution method, Wu et al., Antimicrob. Agents Chemother. 43: 1274-1276, 1999, in LB medium, whereby the assay was performed in sterile 96-well, round-bottom polypropylene microtitre plates with an inoculum of 5×10^5 bacteria per mL. The plates were incubated at 37° C. for 12 h, solutions spotted onto LB-agar plates and the MIC was taken as the concentration at which no growth was observed.

T1 sequence (P0DM80 whole entry, the tested form may be a part): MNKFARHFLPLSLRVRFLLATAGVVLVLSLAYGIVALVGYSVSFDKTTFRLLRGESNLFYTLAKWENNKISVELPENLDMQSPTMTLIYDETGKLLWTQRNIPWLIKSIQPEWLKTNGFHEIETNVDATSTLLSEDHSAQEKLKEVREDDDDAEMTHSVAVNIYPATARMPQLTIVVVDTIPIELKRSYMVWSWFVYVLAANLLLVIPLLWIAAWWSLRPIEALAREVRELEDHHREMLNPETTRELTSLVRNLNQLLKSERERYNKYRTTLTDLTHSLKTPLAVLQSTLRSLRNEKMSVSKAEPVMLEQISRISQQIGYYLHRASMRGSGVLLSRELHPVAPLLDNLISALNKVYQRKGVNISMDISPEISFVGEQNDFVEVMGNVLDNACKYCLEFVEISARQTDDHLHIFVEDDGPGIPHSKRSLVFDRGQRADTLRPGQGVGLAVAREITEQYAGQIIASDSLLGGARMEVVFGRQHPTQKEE

Substance	activation of PhoPQ-dependent reporter [1]	reduction of LPS-induced CCL20 expression [2]	reduction of LPS-induced IL-8 expression [2]	reduction of LPS-induced IL-10 expression [2]	suppression of the induction of LPS-induced genes [2]	inhibition of LPS-induced TNF-α secretion [3]	concentration at which a cytotoxic effect begins [4] [µg/mL]	concentration giving complete hemolysis [4] [µg/mL]	LD50 ([5]; administered intravenously) [mg/kg]	LD50 ([5]; mice, i.p. administration)	potency as direct antimicrobial agent versus natural isomer ([6]; against a spectrum of bacteria)	MIC values relative to that of the natural peptide ([6]; all strains tested, LB medium, 37° C., 12 h)	cytotoxic effects over the range of peptide concentrations examined ([4]; 1% bovine erythrocytes in PBS, overnight, 37° C.)
NH2-GLRSLGRKILRAWKKYGPIIVPIIRIG-COOH (H-GLRSLGRKILRAWKKYGPIIVPIIRIG-OH) [BMAP-28, natural host defense peptide, a 27 amino acid proteolytic product of the antibacterial peptide BMAP-28 precursor protein]	identical patterns of activation	two-fold reduction	four-fold	two-fold reduction	four to five-fold suppression	dose-dependent inhibition	30	≤ 200	15	approximately 40 mg/kg			
D-amino acids of NH2-GIRIIPVIIPGYKKWARLIKRGLSRLG-COOH (H-G[dI][dR][dI][dI][dP][dV][dI][dI][dP]G[dY][dK][dK][dW][dA][dR][dL][dI][dK][dR]G[dL][dS][dR][dL]G-OH; also: retro-inverso) [RI-BMAP-28, retro-inversed form of BMAP-28]	identical patterns of activation	two-fold reduction	four-fold	two-fold reduction	four to five-fold suppression	dose-dependent inhibition					2-3 fold	half to a third	did not exhibit any cytotoxic effects
